# How the values were obtained:
# [1] = Cytotoxicity against human U2OS cells assessed as cell growth inhibition at 10 uM after 24 hrs relative to control; type: cell-based
# [2] = Cytotoxicity against human U2OS cells assessed as cell growth inhibition at 10 uM after 48 hrs relative to control; type: cell-based
# [3] = Cytotoxicity against human HEK293 cells assessed as cell growth inhibition at 10 uM after 24 hrs relative to control; type: cell-based
# [4] = Cytotoxicity against human HEK293 cells assessed as cell growth inhibition at 10 uM after 48 hrs relative to control; type: cell-based
# [5] = Cytotoxicity against human hTERT cells assessed as cell growth inhibition at 10 uM after 24 hrs relative to control; type: cell-based, hTERT-BJ
# [6] = Cytotoxicity against human hTERT cells assessed as cell growth inhibition at 10 uM after 48 hrs relative to control; type: cell-based, hTERT-BJ
# [7] = Cytotoxicity against human MCF7 cells assessed as cell growth inhibition at 10 uM after 24 hrs relative to control; type: cell-based
# [8] = Cytotoxicity against human MCF7 cells assessed as cell growth inhibition at 10 uM after 48 hrs relative to control; type: cell-based
# CYP1A2 = biological target: T1, CYP1A2 (Homo sapiens, UniProt P05177); experiment: Inhibition of CYP1A2 (unknown origin) at 10 uM relative to control; type: ADME
# T1 sequence (P05177 whole entry): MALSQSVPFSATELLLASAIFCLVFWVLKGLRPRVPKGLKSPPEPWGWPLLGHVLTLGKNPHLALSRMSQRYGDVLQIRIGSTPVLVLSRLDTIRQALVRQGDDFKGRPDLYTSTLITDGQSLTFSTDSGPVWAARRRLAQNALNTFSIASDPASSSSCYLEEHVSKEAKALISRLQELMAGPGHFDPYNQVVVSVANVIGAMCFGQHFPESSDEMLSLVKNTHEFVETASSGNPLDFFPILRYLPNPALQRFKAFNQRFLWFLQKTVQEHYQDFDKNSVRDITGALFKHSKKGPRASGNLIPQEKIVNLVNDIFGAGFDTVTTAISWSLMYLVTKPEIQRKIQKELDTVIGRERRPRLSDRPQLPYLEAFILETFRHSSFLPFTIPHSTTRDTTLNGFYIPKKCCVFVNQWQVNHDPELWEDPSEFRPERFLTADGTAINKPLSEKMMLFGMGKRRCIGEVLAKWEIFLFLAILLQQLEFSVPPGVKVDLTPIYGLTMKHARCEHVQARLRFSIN
# CYP2C9 = CYP2C9 (Homo sapiens, UniProt P11712); experiment: Inhibition of CYP2C9 (unknown origin) at 10 uM relative to control; type: ADME
# CYP2C19 = CYP2C19 (Homo sapiens, UniProt P33261); experiment: Inhibition of CYP2C19 (unknown origin) at 10 uM relative to control; type: ADME
# CYP2D6 = CYP2D6 (Homo sapiens, UniProt P10635); experiment: Inhibition of CYP2D6 (unknown origin) at 10 uM relative to control; type: ADME
# CYP3A4 = CYP3A4 (Homo sapiens, UniProt P08684); experiment: Inhibition of CYP3A4 (unknown origin) at 10 uM relative to control; type: ADME
# hERG (KCNH2) = hERG (KCNH2) (Homo sapiens, UniProt Q12809); experiment: Inhibition of human ERG at 10 uM by fluorescence polarization assay relative to control
# SIRT7 = biological target: T2, SIRT7 (Homo sapiens, UniProt Q9NRC8); experiment: Inhibition of SIRT7 (unknown origin) at 10 uM relative to control
# T2 sequence (Q9NRC8 whole entry): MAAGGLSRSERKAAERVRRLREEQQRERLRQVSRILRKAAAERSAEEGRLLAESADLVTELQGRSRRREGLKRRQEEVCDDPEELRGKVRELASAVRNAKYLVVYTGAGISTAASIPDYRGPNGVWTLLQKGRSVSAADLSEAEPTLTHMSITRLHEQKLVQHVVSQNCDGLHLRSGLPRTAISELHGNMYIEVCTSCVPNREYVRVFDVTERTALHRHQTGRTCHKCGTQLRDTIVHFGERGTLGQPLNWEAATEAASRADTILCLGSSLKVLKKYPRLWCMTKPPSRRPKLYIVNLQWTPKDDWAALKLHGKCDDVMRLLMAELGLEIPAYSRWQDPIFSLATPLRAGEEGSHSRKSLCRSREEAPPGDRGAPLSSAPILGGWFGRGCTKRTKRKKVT
# HDAC4 = HDAC4 (Homo sapiens, UniProt P56524); experiment: Inhibition of HDAC4 (unknown origin) at 10 uM relative to control
# HDAC6 = biological target: T3, HDAC6 (Homo sapiens, UniProt Q9UBN7); experiment: Inhibition of HDAC6 (unknown origin) at 10 uM relative to control
# T3 sequence (Q9UBN7 whole entry): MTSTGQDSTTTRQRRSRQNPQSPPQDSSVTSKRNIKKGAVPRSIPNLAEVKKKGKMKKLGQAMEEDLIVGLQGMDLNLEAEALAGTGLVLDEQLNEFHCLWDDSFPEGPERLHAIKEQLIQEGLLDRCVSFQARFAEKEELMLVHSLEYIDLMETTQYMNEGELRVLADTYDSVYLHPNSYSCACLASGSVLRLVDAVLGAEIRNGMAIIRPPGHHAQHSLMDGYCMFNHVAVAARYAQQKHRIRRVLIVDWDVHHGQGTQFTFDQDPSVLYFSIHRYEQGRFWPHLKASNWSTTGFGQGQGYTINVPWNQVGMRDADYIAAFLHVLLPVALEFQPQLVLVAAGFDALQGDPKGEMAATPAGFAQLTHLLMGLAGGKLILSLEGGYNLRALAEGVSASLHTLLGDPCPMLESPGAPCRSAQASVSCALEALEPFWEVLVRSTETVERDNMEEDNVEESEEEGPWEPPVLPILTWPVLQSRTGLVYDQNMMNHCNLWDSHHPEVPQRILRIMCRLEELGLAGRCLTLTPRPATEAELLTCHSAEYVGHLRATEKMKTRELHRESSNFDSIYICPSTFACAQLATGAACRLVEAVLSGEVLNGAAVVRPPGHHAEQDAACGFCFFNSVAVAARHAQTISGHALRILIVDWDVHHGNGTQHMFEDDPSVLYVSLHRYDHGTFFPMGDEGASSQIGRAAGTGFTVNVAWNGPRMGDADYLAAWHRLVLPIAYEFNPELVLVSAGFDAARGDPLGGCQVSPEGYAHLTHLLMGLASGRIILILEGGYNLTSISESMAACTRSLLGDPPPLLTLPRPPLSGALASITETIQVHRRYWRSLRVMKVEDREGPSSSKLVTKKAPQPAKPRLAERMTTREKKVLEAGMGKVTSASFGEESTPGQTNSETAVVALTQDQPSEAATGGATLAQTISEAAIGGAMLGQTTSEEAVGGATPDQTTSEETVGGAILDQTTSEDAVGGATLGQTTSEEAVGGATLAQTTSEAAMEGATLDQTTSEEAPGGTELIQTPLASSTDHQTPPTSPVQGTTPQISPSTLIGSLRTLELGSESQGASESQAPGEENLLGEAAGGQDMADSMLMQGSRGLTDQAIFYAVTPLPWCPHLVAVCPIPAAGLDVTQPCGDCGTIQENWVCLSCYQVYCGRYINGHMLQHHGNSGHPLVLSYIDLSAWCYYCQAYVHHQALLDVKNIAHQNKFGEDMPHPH
# HDAC8 = biological target: T4, HDAC8 (Homo sapiens, UniProt Q9BY41); experiment: Inhibition of HDAC8 (unknown origin) at 10 uM relative to control
# T4 sequence (Q9BY41 whole entry): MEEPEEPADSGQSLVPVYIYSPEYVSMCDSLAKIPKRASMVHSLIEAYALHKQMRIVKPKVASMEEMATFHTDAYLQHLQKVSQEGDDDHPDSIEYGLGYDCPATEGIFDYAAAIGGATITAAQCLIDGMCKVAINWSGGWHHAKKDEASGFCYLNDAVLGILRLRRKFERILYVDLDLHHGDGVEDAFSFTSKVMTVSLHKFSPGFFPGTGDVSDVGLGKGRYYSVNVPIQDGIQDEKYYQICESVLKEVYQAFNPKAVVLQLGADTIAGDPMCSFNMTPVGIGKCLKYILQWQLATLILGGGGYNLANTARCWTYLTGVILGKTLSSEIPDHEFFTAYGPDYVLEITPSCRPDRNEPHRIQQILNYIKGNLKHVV
# HDAC9 = HDAC9 (Homo sapiens, UniProt Q9UKV0); experiment: Inhibition of HDAC9 (unknown origin) at 10 uM relative to control
# [9] = biological target: 3',5'-cyclic-AMP phosphodiesterase 4C (Homo sapiens) (UniProt Q08493); experiment: Inhibition of PDE4C1 (unknown origin) at 10 uM relative to control
# Aurora B = Aurora B (Homo sapiens, UniProt Q96GD4); experiment: Inhibition of Aurora B (unknown origin) at 10 uM relative to control
# Chain of Aurora B (Q96GD4 whole entry): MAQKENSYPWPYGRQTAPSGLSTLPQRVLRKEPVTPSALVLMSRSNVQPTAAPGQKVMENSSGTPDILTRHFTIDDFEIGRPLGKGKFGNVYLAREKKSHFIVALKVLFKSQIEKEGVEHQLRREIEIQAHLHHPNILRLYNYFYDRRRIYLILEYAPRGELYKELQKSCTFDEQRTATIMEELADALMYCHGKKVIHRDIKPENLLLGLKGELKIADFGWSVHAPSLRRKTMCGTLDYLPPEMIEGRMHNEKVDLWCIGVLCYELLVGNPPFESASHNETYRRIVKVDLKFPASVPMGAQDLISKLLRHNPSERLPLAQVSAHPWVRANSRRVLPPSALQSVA
# Chain of CYP3A4 (P08684 whole entry): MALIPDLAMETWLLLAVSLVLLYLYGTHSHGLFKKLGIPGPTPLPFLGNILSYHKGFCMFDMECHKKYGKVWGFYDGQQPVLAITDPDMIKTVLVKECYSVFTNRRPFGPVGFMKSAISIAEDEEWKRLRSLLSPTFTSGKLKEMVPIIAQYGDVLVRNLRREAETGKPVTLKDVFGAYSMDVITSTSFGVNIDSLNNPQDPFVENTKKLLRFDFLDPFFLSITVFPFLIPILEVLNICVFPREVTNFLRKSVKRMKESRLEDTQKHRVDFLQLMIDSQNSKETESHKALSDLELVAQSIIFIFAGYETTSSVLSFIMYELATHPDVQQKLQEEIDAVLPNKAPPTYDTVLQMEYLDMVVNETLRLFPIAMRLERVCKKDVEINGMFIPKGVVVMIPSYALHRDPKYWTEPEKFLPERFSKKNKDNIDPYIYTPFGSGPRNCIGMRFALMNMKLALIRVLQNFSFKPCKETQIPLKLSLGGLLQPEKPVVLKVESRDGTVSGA
# Chain of CYP2D6 (P10635 whole entry): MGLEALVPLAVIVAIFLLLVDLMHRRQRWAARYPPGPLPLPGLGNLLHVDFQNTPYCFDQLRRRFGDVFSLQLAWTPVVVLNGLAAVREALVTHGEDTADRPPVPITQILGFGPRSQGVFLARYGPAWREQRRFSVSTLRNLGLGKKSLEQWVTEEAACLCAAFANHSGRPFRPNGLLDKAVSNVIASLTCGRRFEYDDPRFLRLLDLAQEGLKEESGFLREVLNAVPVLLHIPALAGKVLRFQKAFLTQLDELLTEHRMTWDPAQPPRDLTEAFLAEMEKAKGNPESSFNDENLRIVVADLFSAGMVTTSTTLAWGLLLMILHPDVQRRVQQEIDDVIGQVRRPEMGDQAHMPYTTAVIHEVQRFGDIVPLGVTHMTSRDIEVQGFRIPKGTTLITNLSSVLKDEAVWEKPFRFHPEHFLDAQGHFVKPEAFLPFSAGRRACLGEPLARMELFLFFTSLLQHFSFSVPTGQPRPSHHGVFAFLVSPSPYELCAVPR
# Chain of 3',5'-cyclic-AMP phosphodiesterase 4C (Homo sapiens) (Q08493 whole entry): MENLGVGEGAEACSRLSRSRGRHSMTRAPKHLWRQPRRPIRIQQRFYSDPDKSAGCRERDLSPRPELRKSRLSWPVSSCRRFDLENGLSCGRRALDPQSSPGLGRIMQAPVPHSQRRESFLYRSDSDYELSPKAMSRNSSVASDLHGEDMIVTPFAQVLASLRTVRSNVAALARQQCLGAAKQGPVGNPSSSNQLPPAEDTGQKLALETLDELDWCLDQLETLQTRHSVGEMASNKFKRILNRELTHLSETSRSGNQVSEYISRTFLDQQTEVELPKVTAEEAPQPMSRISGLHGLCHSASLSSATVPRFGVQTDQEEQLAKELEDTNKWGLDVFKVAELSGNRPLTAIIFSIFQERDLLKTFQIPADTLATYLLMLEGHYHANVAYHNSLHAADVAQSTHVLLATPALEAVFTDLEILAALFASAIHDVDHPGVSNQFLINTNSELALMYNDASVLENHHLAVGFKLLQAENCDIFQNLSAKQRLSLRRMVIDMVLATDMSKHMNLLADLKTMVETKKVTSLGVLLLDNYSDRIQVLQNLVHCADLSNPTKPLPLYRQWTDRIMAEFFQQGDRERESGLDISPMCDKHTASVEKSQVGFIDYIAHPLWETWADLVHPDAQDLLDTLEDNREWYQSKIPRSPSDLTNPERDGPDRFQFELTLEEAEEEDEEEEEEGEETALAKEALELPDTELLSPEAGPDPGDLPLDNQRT
# Chain of HDAC4 (P56524 whole entry): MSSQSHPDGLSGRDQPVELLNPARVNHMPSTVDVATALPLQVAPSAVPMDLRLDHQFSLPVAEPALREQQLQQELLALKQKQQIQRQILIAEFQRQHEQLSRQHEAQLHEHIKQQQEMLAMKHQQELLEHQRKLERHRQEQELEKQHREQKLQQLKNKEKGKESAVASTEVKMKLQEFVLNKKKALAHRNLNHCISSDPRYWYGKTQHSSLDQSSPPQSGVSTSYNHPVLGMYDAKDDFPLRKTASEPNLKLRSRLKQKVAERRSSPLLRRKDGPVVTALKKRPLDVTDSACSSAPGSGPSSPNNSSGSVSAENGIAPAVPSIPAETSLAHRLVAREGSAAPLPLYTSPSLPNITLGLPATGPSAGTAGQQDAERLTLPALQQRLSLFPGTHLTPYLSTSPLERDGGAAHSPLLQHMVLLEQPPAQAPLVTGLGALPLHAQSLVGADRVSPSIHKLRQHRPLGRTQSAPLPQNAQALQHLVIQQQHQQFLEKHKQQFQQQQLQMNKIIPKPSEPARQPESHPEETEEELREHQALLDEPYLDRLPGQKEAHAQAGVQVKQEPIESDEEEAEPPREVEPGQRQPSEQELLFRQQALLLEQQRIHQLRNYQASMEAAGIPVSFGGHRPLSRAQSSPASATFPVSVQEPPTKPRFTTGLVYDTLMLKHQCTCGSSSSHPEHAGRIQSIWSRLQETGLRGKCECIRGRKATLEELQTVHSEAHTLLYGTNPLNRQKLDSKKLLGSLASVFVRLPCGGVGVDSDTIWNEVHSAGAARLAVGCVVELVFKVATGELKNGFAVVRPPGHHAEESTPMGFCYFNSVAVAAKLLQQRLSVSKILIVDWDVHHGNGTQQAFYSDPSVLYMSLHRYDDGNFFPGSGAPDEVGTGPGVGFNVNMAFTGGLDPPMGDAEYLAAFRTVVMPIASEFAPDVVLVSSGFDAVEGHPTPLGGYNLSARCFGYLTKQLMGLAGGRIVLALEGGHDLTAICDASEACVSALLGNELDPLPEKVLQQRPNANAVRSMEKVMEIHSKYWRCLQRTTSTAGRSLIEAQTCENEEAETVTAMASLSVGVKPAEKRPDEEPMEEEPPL
# Chain of CYP2C9 (P11712 whole entry): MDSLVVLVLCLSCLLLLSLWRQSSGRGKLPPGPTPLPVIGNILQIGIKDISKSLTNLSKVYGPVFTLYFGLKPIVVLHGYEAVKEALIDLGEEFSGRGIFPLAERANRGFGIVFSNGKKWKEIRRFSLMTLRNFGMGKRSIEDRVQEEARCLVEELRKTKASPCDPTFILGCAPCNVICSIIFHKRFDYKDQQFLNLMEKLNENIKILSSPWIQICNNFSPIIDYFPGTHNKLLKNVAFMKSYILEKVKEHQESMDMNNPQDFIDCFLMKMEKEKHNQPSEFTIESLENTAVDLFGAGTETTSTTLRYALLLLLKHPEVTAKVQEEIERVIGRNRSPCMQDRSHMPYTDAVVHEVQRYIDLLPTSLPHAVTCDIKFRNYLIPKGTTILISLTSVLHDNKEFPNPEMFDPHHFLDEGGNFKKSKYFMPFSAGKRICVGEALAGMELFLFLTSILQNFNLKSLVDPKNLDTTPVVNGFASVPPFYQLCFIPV
# Chain of HDAC9 (Q9UKV0 whole entry): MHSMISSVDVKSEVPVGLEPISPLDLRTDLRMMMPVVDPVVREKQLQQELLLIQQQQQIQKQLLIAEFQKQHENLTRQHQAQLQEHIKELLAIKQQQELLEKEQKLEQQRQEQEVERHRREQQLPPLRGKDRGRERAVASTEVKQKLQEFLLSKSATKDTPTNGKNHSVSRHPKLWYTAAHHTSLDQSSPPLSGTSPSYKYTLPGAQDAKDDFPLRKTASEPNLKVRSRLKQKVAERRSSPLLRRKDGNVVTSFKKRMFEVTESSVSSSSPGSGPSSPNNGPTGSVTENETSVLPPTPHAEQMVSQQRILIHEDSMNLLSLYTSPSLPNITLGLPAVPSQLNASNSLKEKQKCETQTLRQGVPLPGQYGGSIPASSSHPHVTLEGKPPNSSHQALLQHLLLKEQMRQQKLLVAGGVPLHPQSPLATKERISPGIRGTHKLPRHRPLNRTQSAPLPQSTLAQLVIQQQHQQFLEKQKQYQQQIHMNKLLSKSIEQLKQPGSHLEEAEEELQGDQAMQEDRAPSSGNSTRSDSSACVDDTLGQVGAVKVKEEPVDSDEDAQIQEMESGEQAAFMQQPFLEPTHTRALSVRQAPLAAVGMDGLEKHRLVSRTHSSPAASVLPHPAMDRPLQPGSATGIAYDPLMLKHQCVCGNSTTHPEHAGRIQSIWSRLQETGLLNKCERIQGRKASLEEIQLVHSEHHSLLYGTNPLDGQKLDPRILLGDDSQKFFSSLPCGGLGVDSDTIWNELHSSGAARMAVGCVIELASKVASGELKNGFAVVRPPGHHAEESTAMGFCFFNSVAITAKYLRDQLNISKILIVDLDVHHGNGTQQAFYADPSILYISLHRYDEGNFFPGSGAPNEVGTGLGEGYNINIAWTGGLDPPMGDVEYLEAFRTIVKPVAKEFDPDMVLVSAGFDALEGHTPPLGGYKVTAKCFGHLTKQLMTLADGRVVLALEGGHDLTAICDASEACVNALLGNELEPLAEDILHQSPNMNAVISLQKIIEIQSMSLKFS
SMILES,"inhibition at 24 h, 10 µM [1]","inhibition at 48 h, 10 µM [2]","inhibition at 24 h, 10 µM [3]","inhibition at 48 h, 10 µM [4]","inhibition at 24 h, 10 µM [5]","inhibition at 48 h, 10 µM [6]","inhibition at 24 h, 10 µM [7]","inhibition at 48 h, 10 µM [8]",inhibition at 10 µM (CYP1A2),inhibition at 10 µM (CYP2C9),inhibition at 10 µM (CYP2C19),inhibition at 10 µM (CYP2D6),inhibition at 10 µM (CYP3A4),inhibition at 10 µM (hERG (KCNH2)),inhibition at 10 µM (SIRT7),inhibition at 10 µM (HDAC4),inhibition at 10 µM (HDAC6),inhibition at 10 µM (HDAC8),inhibition at 10 µM (HDAC9),inhibition [9],also measured
NCCOc1ccc(Cc2ccc(N)cc2)c(C(F)(F)F)c1,< 50%,< 50%,< 50%,< 50%,< 50%,< 50%,< 50%,< 50%,> 91%,> 91%,> 91%,51%,51%,51%,< 50%,< 50%,< 50%,< 50%,< 50%,< 50%,inhibition at 10 µM (Aurora B): < 50%
CCNc1ccc(Cc2c(C)cc(OCC(=O)O)cc2C)cc1C(C)C,< 50%,< 50%,< 50%,< 50%,< 50%,< 50%,< 50%,< 50%,51%,> 91%,> 91%,51%,> 91%,51%,< 50%,< 50%,< 50%,< 50%,< 50%,< 50%,inhibition at 10 µM (Aurora B): < 50%
CC(C)c1cc(Cc2ccc(OCC(=O)O)cc2)ccc1N,< 50%,< 50%,< 50%,< 50%,< 50%,< 50%,< 50%,< 50%,< 50%,< 50%,< 50%,< 50%,< 50%,< 40%,< 50%,< 50%,< 50%,< 50%,< 50%,< 50%,inhibition at 10 µM (Aurora B): < 50%
Nc1ccc(Cc2ccc(OCC(=O)O)cc2F)cc1,< 50%,< 50%,< 50%,< 50%,< 50%,< 50%,< 50%,< 50%,< 50%,51%,< 50%,< 50%,< 50%,> 91%,< 50%,< 50%,< 50%,< 50%,< 50%,< 50%,inhibition at 10 µM (Aurora B): < 50%
Cc1cc(OCCN)cc(C)c1Cc1ccc(O)cc1,< 50%,< 50%,< 50%,< 50%,< 50%,< 50%,< 50%,< 50%,51%,> 91%,> 91%,51%,51%,51%,< 50%,< 50%,< 50%,< 50%,< 50%,< 50%,inhibition at 10 µM (Aurora B): < 50%
Cc1cc(OCC(=O)O)cc(C)c1Cc1ccc(N)cc1,< 50%,< 50%,< 50%,< 50%,< 50%,< 50%,< 50%,< 50%,< 50%,< 50%,< 50%,< 50%,< 50%,< 25%,< 50%,< 50%,< 50%,< 50%,< 50%,< 50%,inhibition at 10 µM (Aurora B): < 50%
